In the PolyMetriX glass transition set:
± gives the standard deviation of the reports.

SMILES	glass transition temperature [°C]
*CCN(CCOC(=O)c1cc(OCc2c(F)c(F)c(OC)c(F)c2F)cc(C(=O)O*)c1)c1ccc(/C=C/c2ccc(/C=C/C3=C(C#N)C(=C(C#N)C#N)OC3(c3ccccc3)C(F)(F)F)s2)cc1 (repeat unit)	140.00
*CCCCOC(=O)c1ccc(C(=O)O*)cc1 (repeat unit) [Poly(butylene terephthalate)]	44.12 ± 6
*CC(*)c1ccc(C(=O)N2CCOCC2)cc1 (repeat unit)	127.00
*c1ccc(C(C#N)(C(=O)O)C(*)(C#N)C(=O)O)cc1 (repeat unit)	108.00
*Oc1ccc(C(C)(C)c2ccc(OC(=O)c3ccc(C(*)=O)cc3)c(C(C)C)c2)cc1C(C)C (repeat unit)	140.00
*/C=C/CC* (repeat unit) [1,4-polybutadiene]	-91.00 ± 5
*CCOC(=O)CCC(=O)O* (repeat unit) [Poly(ethylene succinate)]	-8.63 ± 3.5
*OC(COC(=O)C1CCC(C(*)=O)CC1)COc1ccc(/N=N/c2ccc(C#N)cc2)cc1 (repeat unit)	106.00
*CC#CC#CCOc1ccc(C(=O)OCCN(CCOC(=O)c2ccc(O*)cc2)c2ccc([N+](=O)[O-])cc2)cc1 (repeat unit)	100.00
*c1cc(CCCCCCCC)c(*)s1 (repeat unit)	-13.10 ± 5.5
*c1ccc(/C=C(\C#N)c2cc(OCCCCCCCC)c(/C(C#N)=C/c3ccc(N(*)c4ccccc4)cc3)cc2OCCCCCCCC)cc1 (repeat unit)	78.00
*c1ccc(Oc2ccc(C(=O)c3cccc(C(=O)c4ccc(Oc5ccc(-n6c(=O)c7cc8c(=O)n(*)c(=O)c8cc7c6=O)cc5)cc4)c3)cc2)cc1 (repeat unit)	247.00
*c1ccc(Oc2ccc(C(=O)c3ccc(Oc4ccc(-c5nc(-c6ccc(-c7nc(*)c(-c8ccccc8)[nH]7)cc6)[nH]c5-c5ccccc5)cc4)cc3)cc2)cc1 (repeat unit)	276.00
*CCOCCOC(=O)/C=C/C(=O)O* (repeat unit)	-8.20
*CC(CC)(CC)C(=O)O* (repeat unit)	60.00
*SC(C)C(*)=O (repeat unit)	12.00
*Oc1ccc(C2(c3ccc(Oc4ccc(C(=O)c5cccc(C(=O)c6ccc(*)cc6)c5)cc4)c(C)c3)CCC3CCCCC3C2)cc1C (repeat unit)	185.00
*c1ccc(Sc2cccc(Sc3ccc(S(*)=O)cc3)c2)cc1 (repeat unit)	121.00
*c1ccc(OCCN(CCOc2ccc(-c3nc4ccc(Oc5ccc6nc(*)c(-c7ccccc7)nc6c5)cc4nc3-c3ccccc3)cc2)c2ccc(/N=N/c3ccc([N+](=O)[O-])cc3)cc2)cc1 (repeat unit)	199.00
*CCOCCOCCOCCOC(=O)/C=C/C(=O)NCCCCCCNC(=O)/C=C/C(=O)O* (repeat unit)	52.00
*c1cccc(NC(=O)CCCCCCCCC(=O)Nc2cccc(S(*)(=O)=O)c2)c1 (repeat unit)	112.00

SMILES	glass transition temperature [°C]
*CC(*)(CCC)C(=O)OC (repeat unit)	83.50
*CCCCCCCC(=O)OCC1COC(*)O1 (repeat unit)	-23.00
*Oc1ccc(CC(NC(=O)CCc2ccc(OC(=O)CCC(*)=O)cc2)C(=O)OC)cc1 (repeat unit)	91.50
*c1ccc(Oc2ccc(N3C(=O)c4ccc(Oc5cccc(Oc6ccc7c(c6)C(=O)N(*)C7=O)c5)cc4C3=O)cc2)cc1 (repeat unit)	209.00
*c1ccc(Oc2ccc(Oc3ccc(-n4c(=O)c5cc6c(=O)n(*)c(=O)c6cc5c4=O)cc3)cc2-c2ccccc2)cc1 (repeat unit)	271.00
*Nc1cccc(NC(=O)c2cc(NC(=O)C(CCSC)N3C(=O)c4ccccc4C3=O)cc(C(*)=O)c2)c1 (repeat unit)	196.00
*CCCCOCO* (repeat unit)	-84.00
*c1cccc(P(=O)(c2cccc(-n3c(=O)c4cc5c(=O)n(*)c(=O)c5cc4c3=O)c2)c2cc(C(F)(F)F)cc(C(F)(F)F)c2)c1 (repeat unit)	281.00
*CC(CC)(CC)CS* (repeat unit)	-36.2
*C(F)(F)C1(F)C(F)(F)C(*)(F)C(F)(F)C1(F)F (repeat unit) [Perfluoropolymer 3]	117 ± 0.6
*c1nnc(-c2cc(CCCCCCCC)c(-c3ccc(-c4sc(-c5nnc(-c6cc(OCCCCCCCC)c(*)cc6OCCCCCCCC)o5)cc4CCCCCCCC)s3)s2)o1 (repeat unit)	34.10
*CC(*)c1ccc(C(=O)CCC)cc1 (repeat unit)	74.00
*c1ccc2c(c1)C(=O)N(c1ccc3c(c1)-c1cc(N4C(=O)c5ccc(C(*)(C(F)(F)F)C(F)(F)F)cc5C4=O)ccc1C3)C2=O (repeat unit)	394.00
*CC(*)C(=O)Nc1ccccc1 (repeat unit) [Poly(N-phenyl acrylamide)]	155.92 ± 5.8
*c1ccc(C(=O)c2cccc(-n3c(=O)c4cc5c(=O)n(*)c(=O)c5cc4c3=O)c2)cc1 (repeat unit)	340.00 ± 11
*CCCCCCC(=O)N* (repeat unit)	52.00
*CCN(CCOC(=O)Nc1cccc(NC(=O)O*)c1C)c1ccc(/N=N/c2ccc([N+](=O)[O-])cc2)cc1 (repeat unit)	147.00
*Nc1cc(NC(=O)c2ccc(C(*)=O)cc2)cc(C(=O)OCCOc2ccc(/C=C/C(=O)c3ccccc3)cc2)c1 (repeat unit)	233.00
*CCCCCCOc1ccc(CCc2ccc(O*)cc2C)cc1 (repeat unit)	17.90
*CCCCCCOC(=O)OCCCOC(=O)OCCCCCCOc1ccc(C(=O)c2ccc(O*)cc2)cc1 (repeat unit)	16.00

Now from value to compound:

glass transition temperature [°C]	SMILES
229.00	*c1ccc(Oc2ccc(Oc3ccc(N4C(=O)c5ccc(Oc6ccc(C(c7ccccc7)(c7ccccc7)c7ccc(Oc8ccc9c(c8)C(=O)N(*)C9=O)cc7)cc6)cc5C4=O)cc3)c(C(C)(C)C)c2)cc1 (repeat unit)
145.00	*CC(*)(C)C(=O)Oc1ccc(/N=N/c2ccc([N+](=O)[O-])cc2)cc1 (repeat unit)
279.00	*c1ccc(Sc2ccc(-c3nn(-c4ccc(S(=O)(=O)c5ccc(-n6nc(*)c7ccccc7c6=O)cc5)cc4)c(=O)c4ccccc34)cc2)cc1 (repeat unit)
248.00	*Oc1ccc(S(=O)(=O)c2cccc3c(S(=O)(=O)c4ccc(Oc5ccc(-c6ccc(*)cc6)cc5)cc4)cccc23)cc1 (repeat unit)
210.00	*c1ccc(Oc2ccc(Oc3ccc(Oc4ccc(N5C(=O)c6ccc(Oc7ccc(Oc8ccc9c(c8)C(=O)N(*)C9=O)cc7)cc6C5=O)cc4)cc3)cc2)cc1 (repeat unit)
71.00	*CCCCCCOC(=O)OCCCCCCN1C(=O)c2ccc(-c3ccc4c(c3)C(=O)N(*)C4=O)cc2C1=O (repeat unit)
192.00	*Cc1c(C)c(C)c(CNC(=O)CCCC(=O)N*)c(C)c1C (repeat unit)
106.20	*c1ccc(-c2ccc3c(c2)C(CCCCCC)(CCCCCC)c2cc(*)ccc2-3)cc1 (repeat unit)
178.00	*Oc1ccc(/C(C)=N/c2ccc(/N=C(\C)c3ccc(Oc4ccc(C(c5ccccc5)(c5ccccc5)c5ccc(*)cc5)cc4)cc3)cc2)cc1 (repeat unit)
266.00	*c1ccc2c(c1)C(=O)N(c1ccc(Oc3ccc(C(=O)c4ccc(Oc5ccc(N6C(=O)c7ccc(C(*)(C(F)(F)F)C(F)(F)F)cc7C6=O)cc5)cc4)cc3)cc1)C2=O (repeat unit)
63.00	*CC(C)(CC)COC(=O)c1ccc(C(=O)O*)cc1 (repeat unit)
24.00	*O[Si](C)(C)OC(CCl)COc1ccc(C(C)(C)c2ccc(OCC(*)CCl)cc2)cc1 (repeat unit)
72.00	*CC(O)CCCCC(O)CN(*)c1ccc(N(C)C)cc1 (repeat unit)
80.00	*CCCCCCOc1ccc(/C=C2\CCC/C(=C\c3ccc(O*)c(OC)c3)C2=O)cc1OC (repeat unit)
108.00	*COc1ccc(C(=C(Cl)Cl)c2ccc(O*)cc2)cc1 (repeat unit)
111.00	*c1ccc2c(c1)C(=O)N(c1cccc(C(F)(F)C(F)(F)C(F)(F)C(F)(F)C(F)(F)c3cccc(N4C(=O)c5ccc(C(F)(F)C(F)(F)C(*)(F)F)cc5C4=O)c3)c1)C2=O (repeat unit)
198.00	*Oc1ccc(Oc2ccc(C(=O)c3ccc(NC(=O)c4cccc(C(=O)Nc5ccc(C(=O)c6ccc(*)cc6)cc5)c4)cc3)cc2)cc1 (repeat unit)
153.00	*CCCC(C)(C)CNC(=O)c1cccc(C(=O)N*)c1 (repeat unit)
122.00	*CCCCCC(=O)Oc1ccc(C2(c3ccc(OC(=O)c4ccc5c(c4)C(=O)N(*)C5=O)cc3)CCCCC2)cc1 (repeat unit)
83.00	*CC(*)(C)C(=O)OCCCCCCN1CCN(c2ccc(/N=N/c3ccc(C=C(C#N)C#N)cc3)cc2)CC1 (repeat unit)
213.00	*c1ccc(Oc2cccc(Oc3ccc(N4C(=O)c5ccc(Oc6ccc(C(C)(C)c7ccc(Oc8ccc9c(c8)C(=O)N(*)C9=O)cc7)cc6)cc5C4=O)cc3)c2C#N)cc1 (repeat unit)
329.00	*c1ccc2c(c1)C(=O)N(c1ccc(Oc3ccc(N4C(=O)c5ccc(-c6c(-c7ccccc7)c(-c7ccccc7)c(-c7ccc(Oc8ccc(-c9c(-c%10ccccc%10)c(-c%10ccccc%10)c(*)c(-c%10ccccc%10)c9-c9ccccc9)cc8)cc7)c(-c7ccccc7)c6-c6ccccc6)cc5C4=O)cc3)cc1)C2=O (repeat unit)
230.00	*c1ccc(Oc2cccc(Oc3ccc(N4C(=O)c5cccc(Oc6ccc(S(=O)(=O)c7ccc(Oc8cccc9c8C(=O)N(*)C9=O)cc7)cc6)c5C4=O)cc3)c2)cc1 (repeat unit)
